Test results taken from patent US8222262B2, “Indazolyl derivatives useful as potassium channel modulating agents” (Neurosearch A/S, priority 2006, dated 2012).

Assays:
hSK3 channels = molecular target: T1, hSK3 channels (Homo sapiens, UniProt Q9UGI6); experiment: Whole-cell patch-clamp recording of ionic current through SK channels (subtype 3) in HEK293 cells expressing hSK3; format: cell-based; settings: baseline current at -75 mV, free Ca2+ 0.3-0.4 μM, room temperature
T1 construct: expressed in transfected cells; host or cells: HEK293
Protocol: The ionic current through small-conductance Ca^2+-activated K^+ channels (SK channels, subtype 3) is recorded using the whole-cell configuration of the patch-clamp technique.
HEK293 tissue culture cells expressing hSK3 channels were grown in DMEM (Dulbecco's Modified Eagle Medium) supplemented with 10% FCS (foetal calf serum) at 37° C. in 5% CO2. At 60-80% confluency, cells were harvested by trypsin treatment and seeded on cover slips.
Experiments are carried out a patch-clamp set-up. Cells plated on coverslips are placed in a 15 μl perfusion chamber (flowrate ˜1 ml/min) mounted on an inverted microscope placed on a vibration-free table in a grounded Faraday cage. All experiments are performed at room temperature (20-22° C.). […] Data are stored directly on the hard-disk and analysed by IGOR software (Wavemetrics, Lake Oswega, Oreg., USA).
The whole-cell configuration of the patch-clamp technique is applied. […] Cell capacitance is electronically compensated and the resistance between the pipette and the cell interior (the series resistance, Rs) is measured and compensated for. […]
The intracellular (pipette) solution contained: 154 mM KCl, 10 mM HEPES, 10 mM EGTA. Concentrations of CaCl2 and MgCl2 needed to obtain the desired free concentrations of Ca^2+ (0.3-0.4 μM, Mg^2+ always 1 mM) were calculated by EqCal software (Cambridge, UK) and added. […]

| SMILES | SC100 (Stimulating Concentration required for increasing the baseline current by 100%) (hSK3 channels) [µM] | melting point [°C] |
| --- | --- | --- |
| Cc1cc(Nc2ccc(Cl)cc2)nc(-n2cc3ccccc3n2)n1 [Compound A1, (4-Chloro-phenyl)-(2-indazol-2-yl-6-methyl-pyrimidin-4-yl)-amine] | 0.08 | 224.7 to 226.7 |
| c1ccc2c(c1)cnn2-c1nc(NC2CCCCC2)c2ccccc2n1 [Compound A3, Cyclohexyl-(2-indazol-1-yl-quinazolin-4-yl)-amine] |  | 278.1 to 281.4 |
| Clc1ccc(Nc2cncc(-n3cc4ccccc4n3)n2)cc1 [Compound D1, (4-Chloro-phenyl)-(6-indazol-2-yl-pyrazin-2-yl)-amine] |  | 249 to 252 |
